Laboratory results as given in patent publication US9662461B2, “Dry powder drug delivery system and methods” (MannKind Corporation, priority 2008, dated 2017).

Experiments:
[1] = VMGD and container emptying by laser diffraction, DPI 2 vs predicate inhaler (Example 6); type: physicochemical; conditions: 56% trans, SSA 55, 4 kPa
Source text: Laser diffraction of dry powder formulations emitted from dry powder inhalers is a common methodology employed to characterize the level of de-agglomeration subjected to a powder. The methodology indicates a measure of geometric size rather than aerodynamic size as occurring in industry standard impaction methodologies. Typically, the geometric size of the emitted powder includes a volumetric distribution characterized by the median particle size, VMGD. Importantly, geometric sizes of the emitted particles are discerned with heightened resolution as compared to the aerodynamic sizes provided by impaction methods. Smaller sizes are preferred and result in greater likelihood of individual particles being delivered to the pulmonary tract. Thus, differences in inhaler de-agglomeration and ultimate performance can be easier to resolve with diffraction. In these experiments, an inhaler as specified in Example 3 and a predicate inhaler are tested with laser diffraction at pressures analogous to actual patient inspiratory capacities to determine the effectiveness of the inhalation system to de-agglomerate powder formulations. […] Reported in Table 5 are a VMGD and an efficiency of the container emptying during the testing.

[2] = Pharmacokinetics of FDKP inhaled as FDKP inhalation powder (Example 8); type: in vivo, healthy volunteers; conditions: for AVG mean AUC fdkp per emitted fdkp mass: n=10
Description: The MEDTONE® inhaler system was used for comparison.
To generate a “hard” inhalation, the subject provided a nominal inhalation time of about 6.5 seconds and a peak pressure of 7 kPa. Conversely, to generate an “easy” inhalation, the subject provided a nominal inhalation time of about 6.5 seconds and a peak pressure of 5 kPa. Coupled with the inhalation monitoring apparatus, gravimetric assessment of the powder mass discharged from the cartridge was performed. This enabled a linkage between inhalation maneuver during dosing, cartridge discharge mass and pharmacokinetic profile determinations for each subject.
The study was an open-label, crossover, 2-part study in healthy volunteers.
Part 2 was carried out as a 2-part, 2-way crossover study for evaluating the effect of flow rate (15 versus 30 LPM) and inhalation time (3 versus 6 seconds). For each parameter tested (i.e., flow rate, and inhalation time), ten subjects were crossed over for each parameter with 20 subjects total for all of the parameters. Pharmacokinetics of FDPK was assessed with each treatment from blood samples taken from the subjects.

[3] = In vitro powder performance DPI 2 vs MEDTONE delivery system (Example 7); type: physicochemical; conditions: 4 kPa
Source text: In vitro powder performance for these systems was compared for various parameter of inhaler performance. For DPI 2 a single discharge per cartridge was used as compared to two discharges per cartridge in the MEDTONE® system.
Particle sizing by laser diffraction and quantification of emitted mass as described above were used in these experiments. A laser diffraction instrument (Sympatec HELOS) was adapted with a novel pressurized inhaler chamber to facilitate analysis of powder plumes. MTDS cartridges were discharged twice per determination versus once with DPI 2.

[4] = DPI 2, 10 mg fill, single discharge, n=15
[5] = MEDTONE (MTDS), 10 mg fill FDKP, two discharges, n=30

O=C(O)/C=C/C(=O)NCCCCC1NC(=O)C(CCCCNC(=O)/C=C/C(=O)O)NC1=O (stereo not shown) [FDKP, 3,6-bis(N-fumaryl-4-aminobutyl)-2,5-diketopiperazine]
VMGD [1]: 6.800 micron
delivery of FDKP into the systemic circulation, DPI 1 better than MEDTONE ([2]; DPI 1 vs MEDTONE inhaler): about 30%
increase in FDKP plasma AUC, DPI 1 over MEDTONE ([2]; FDKP 10 mg): ~2 fold
AVG mean AUC fdkp per emitted fdkp mass ([2]; Part 1, DPI 1, cartridge 10 mg fdkp): 3495 ng * min/mL * mg fdkp
AVG mean AUC fdkp per emitted fdkp mass ([2]; Part 1, MT (MEDTONE), two inhalations, cartridge 10 mg fdkp): 1934 ng * min/mL * mg fdkp
AVG mean AUC fdkp per emitted fdkp mass ([2]; Part 2, DPI 1, 10 mg, long inhalation time): 3289 ng * min/mL * mg fdkp
AVG mean AUC fdkp per emitted fdkp mass ([2]; Part 2, DPI 1, 10 mg, short inhalation time): 3310 ng * min/mL * mg fdkp
AVG mean AUC fdkp per emitted fdkp mass ([2]; Part 3, DPI 1, 10 mg, easy inhalation effort): 3925 ng * min/mL * mg fdkp
AVG mean AUC fdkp per emitted fdkp mass ([2]; Part 3, DPI 1, 10 mg, hard inhalation effort): 3867 ng * min/mL * mg fdkp
Ave. Geometric SD [3, 4]: 3.79 μm
Ave. VMGD [3, 4]: 6.84 μm
Ave. Geometric SD [3, 5]: 2.94 μm
Ave. VMGD [3, 5]: 21.21 μm
